Measured values published in US20250257061A1, “COMPOSITIONS AND METHODS FOR TREATING CANCER AND REDUCING WNT MEDIATED EFFECTS” (StemSynergy Therapeutics, Inc., priority 2024, published 2025).
Where two headings read alike, the source gives them in different places.

How the values were obtained:
[1] = tested on: Wnt reporter (TCF/LEF1 promoter); assay: HEK STF293 Wnt reporter (TOPFlash) luciferase assay, Steady Glo normalised to Cell Titer; format: cell-based, human
Method: All compounds were tested using the human cell line HEK STF293. This cell line carries a Wnt reporter (TCF/LEF1 promoter), which drives expression of the firefly luciferase protein. The level of Wnt activity is directly correlated with the level of luciferase activity (determined using a simple assay). Compounds that inhibit Wnt signaling by reducing luciferase activity in these two cell lines are further tested biochemically. […] Compounds were further tested in a Viability assay using Wnt-dependent HCT116 cell line. Compounds were prepared as 10 mM stocks for each compound in DMSO. Dilutions were prepared in a 96-well plate in DMSO. The stock dilutions are as follows: 10 mM, 1 mM, 100 μM, 10 μM, 100 nM, and 10 nM. Plates were sealed and stored at −20° C. […] On the first day, Wnt3a-conditioned media (1:1) were added along with diluted compounds (1:100). […] The final concentrations should therefore be 100 μM, 10 μM, 1 μM, 100 nM, 10 nM, and 1 nM. On the second day, the media was removed and 75 μL of Passive Lysis Buffer (Promega) is added to each well. The plate was shaken at 130 rpm for 15 minutes. For the Steady Glo assay, 45 μL of the lysis was removed and added to a white 96-well plate containing 45 μL/well of Steady Glo solution (Promega). For the Cell Titer assay, 25 μL of the lysis was transferred to a white 96-well plate containing 25 μL/well of Cell Titer solution (Promega). Both Steady Glo and Cell Titer assays were read with a luminescence plate reader. When determining EC50, the Steady Glo values were divided by the Cell Titer values to normalize for cell number. All compounds were tested using the human cell line HEK STF293. This cell line carries a Wnt reporter (TCF/LEF1 promoter), which drives expression of the firefly luciferase protein. The level of Wnt activity is directly correlated with the level of luciferase activity (determined using a simple assay). Compounds that inhibit Wnt signaling by reducing luciferase activity in these two cell lines are further tested biochemically. […] Compounds were further tested in a Viability assay using Wnt-dependent HCT116 cell line. Compounds were prepared as 10 mM stocks for each compound in DMSO. Dilutions were prepared in a 96-well plate in DMSO. The stock dilutions are as follows: 10 mM, 1 mM, 100 μM, 10 μM, 100 nM, and 10 nM. Plates were sealed and stored at −20° C. […] On the first day, Wnt3a-conditioned media (1:1) were added along with diluted compounds (1:100). […] The final concentrations should therefore be 100 μM, 10 μM, 1 μM, 100 nM, 10 nM, and 1 nM. On the second day, the media was removed and 75 μL of Passive Lysis Buffer (Promega) is added to each well. The plate was shaken at 130 rpm for 15 minutes. For the Steady Glo assay, 45 μL of the lysis was removed and added to a white 96-well plate containing 45 μL/well of Steady Glo solution (Promega). For the Cell Titer assay, 25 μL of the lysis was transferred to a white 96-well plate containing 25 μL/well of Cell Titer solution (Promega). Both Steady Glo and Cell Titer assays were read with a luminescence plate reader. When determining EC50, the Steady Glo values were divided by the Cell Titer values to normalize for cell number. All compounds were tested using the human cell line HEK STF293. This cell line carries a Wnt reporter (TCF/LEF1 promoter), which drives expression of the firefly luciferase protein. The level of Wnt activity is directly correlated with the level of luciferase activity (determined using a simple assay). Compounds that inhibit Wnt signaling by reducing luciferase activity in these two cell lines are further tested biochemically. […] Compounds were further tested in a Viability assay using Wnt-dependent HCT116 cell line. Compounds were prepared as 10 mM stocks for each compound in DMSO. Dilutions were prepared in a 96-well plate in DMSO. The stock dilutions are as follows: 10 mM, 1 mM, 100 μM, 10 μM, 100 nM, and 10 nM. Plates were sealed and stored at −20° C. […]

[2] = tested on: Wnt-dependent HCT116 cell line; assay: Viability assay using Wnt-dependent HCT116 cell line (Cell Titer Glo); format: cell-based
Method: All compounds were tested using the human cell line HEK STF293. This cell line carries a Wnt reporter (TCF/LEF1 promoter), which drives expression of the firefly luciferase protein. The level of Wnt activity is directly correlated with the level of luciferase activity (determined using a simple assay). Compounds that inhibit Wnt signaling by reducing luciferase activity in these two cell lines are further tested biochemically. […] Compounds were further tested in a Viability assay using Wnt-dependent HCT116 cell line. HEK293 cells were seeded in a 6-well plate at approximately 8.0×10^5 cells (2 mL per well). On the first day, Wnt3a-conditioned media (1:1) and compounds (1:100) were added to the plated cells. The final concentrations of compounds were 1 μM, 500 nM, and 100 nM. Vehicle (DMSO) and a Wnt3a-conditioned media plus Vehicle samples were also prepared as controls. Lysates were collected (with non-denaturing lysis buffer) after 24 hours incubation, and protein concentrations determined by Bradford Assay. Immunoblotting with an anti-beta-catenin antibody (equivalent amounts of protein/lane for each condition) were subsequently performed to determine beta-catenin levels. HCT116 cells were seeded at 2,500 cells/well in a 96-well dish (Volume: 100 μL/well). On the second day, the 10 mM stock solution of each test compound was thawed at room temperature. Dilutions of the test compound were prepared in DMSO in a V-bottom 96-well plate. The stock compound solution, DMSO-diluted compound solutions, and DMSO were further diluted 500-fold in cell culture media, and 100 μL of the compound- or DMSO-containing cell culture media was added to each well of the cells. […] The final DMSO concentration was 0.1% in all wells. On the fifth day, 150 μL of media was removed from each well. 50 μL/well Cell Titer Glo reagent (Promega) was added to each well. The plate was shaken at 130 rpm for 15 minutes at room temperature, and the cell viability was determined using a luminescence plate reader. All compounds were tested using the human cell line HEK STF293. This cell line carries a Wnt reporter (TCF/LEF1 promoter), which drives expression of the firefly luciferase protein. The level of Wnt activity is directly correlated with the level of luciferase activity (determined using a simple assay). Compounds that inhibit Wnt signaling by reducing luciferase activity in these two cell lines are further tested biochemically. […] Compounds were further tested in a Viability assay using Wnt-dependent HCT116 cell line. HEK293 cells were seeded in a 6-well plate at approximately 8.0×10^5 cells (2 mL per well). On the first day, Wnt3a-conditioned media (1:1) and compounds (1:100) were added to the plated cells. The final concentrations of compounds were 1 μM, 500 nM, and 100 nM. Vehicle (DMSO) and a Wnt3a-conditioned media plus Vehicle samples were also prepared as controls. Lysates were collected (with non-denaturing lysis buffer) after 24 hours incubation, and protein concentrations determined by Bradford Assay. Immunoblotting with an anti-beta-catenin antibody (equivalent amounts of protein/lane for each condition) were subsequently performed to determine beta-catenin levels. HCT116 cells were seeded at 2,500 cells/well in a 96-well dish (Volume: 100 μL/well). On the second day, the 10 mM stock solution of each test compound was thawed at room temperature. Dilutions of the test compound were prepared in DMSO in a V-bottom 96-well plate. The stock compound solution, DMSO-diluted compound solutions, and DMSO were further diluted 500-fold in cell culture media, and 100 μL of the compound- or DMSO-containing cell culture media was added to each well of the cells. […] The final DMSO concentration was 0.1% in all wells. On the fifth day, 150 μL of media was removed from each well. 50 μL/well Cell Titer Glo reagent (Promega) was added to each well. The plate was shaken at 130 rpm for 15 minutes at room temperature, and the cell viability was determined using a luminescence plate reader. […]

[3] = Homo sapiens, STF/293, Examples for Formulae (I), (II), and (III), HEK STF293 cells, Wnt3a-conditioned media, read-out: TOPFlash IC50 category
[4] = Homo sapiens, HCT-116, Examples for Formulae (I), (II), and (III), HCT116 cells, read-out: Viability IC50 category
[5] = Homo sapiens, STF/293, Examples for Formulae (IV), (V), (VI), and (VII), HEK STF293 cells, Wnt3a-conditioned media, read-out: TOPFlash IC50 category
[6] = Homo sapiens, HCT-116, Examples for Formulae (IV), (V), (VI), and (VII), HCT116 cells, read-out: Viability IC50 category
[7] = Examples for Formulae (IV), (V), (VI), and (VII), HEK STF293 cells, Wnt3a-conditioned media, read-out: TOPFlash IC50 category
[8] = Examples for Formulae (IV), (V), (VI), and (VII), HCT116 cells, read-out: Viability IC50 category
[9] = Homo sapiens, STF/293, Examples for Formulae (VIII), (IX), and (X), HEK STF293 cells, Wnt3a-conditioned media, read-out: TOPFlash IC50 category
[10] = Homo sapiens, HCT-116, Examples for Formulae (VIII), (IX), and (X), HCT116 cells, read-out: Viability IC50 category

Row | SMILES | IC50 [2, 6] | IC50 [1, 5] | also measured
1 | Cc1nn(Cc2ccc(Cl)cc2Cl)c(Cl)c1C(=O)Nc1nc(-c2ccccn2)cs1 [Example 13] |  |  | IC50 [1, 3]: 500 to 1000 nM; IC50 [2, 4]: 500 to 1000 nM
2 | Cc1onc(-c2cccs2)c1C(=O)Nc1nc(-c2ccccn2)cs1 [Example 1] | 200 to 500 nM | < 200 nM | 
3 | CN(c1nc(-c2ccc(Cl)cc2)c(C(=O)Nc2nc(-c3ccccn3)cs2)o1)S(=O)(=O)c1ccc(C(F)(F)F)cc1 [Example 73] |  |  | IC50 [1, 7]: < 200 nM; IC50 [2, 8]: < 200 nM
4 | CS(=O)(=O)c1ccc(-n2nccc2C(=O)Nc2nc(-c3ccccn3)co2)cc1 [Example 1] |  |  | IC50 [1, 9]: 200 to 500 nM; IC50 [2, 10]: < 200 nM
5 | Cc1onc(-c2c(F)cccc2Cl)c1C(=O)Nc1nc(-c2ccccn2)cs1 [Example 14] | 200 to 500 nM | < 200 nM | 
6 | Cc1nc(-c2ccc(F)cc2)c(C(=O)Nc2nc(-c3ccccn3)cs2)o1 [Example 8] | < 200 nM | < 200 nM | 
7 | Cc1onc(-c2ccc(C(F)(F)F)cc2)c1C(=O)Nc1nc(-c2ccccn2)cs1 [Example 24] |  |  | IC50 ([1]; Homo sapiens, STF/293, read-out: TOPFlash IC50 category): < 200 nM; IC50 ([2]; Homo sapiens, HCT-116, read-out: Viability IC50 category): < 200 nM
8 | Cc1nc(N(C)S(=O)(=O)c2cccc(Cl)c2)oc1C(=O)Nc1nc(-c2ccccn2)cs1 [Example 51] | 500 to 1000 nM | 500 to 1000 nM | 
9 | O=C(Nc1nc(-c2ccccn2)cs1)c1oc(C(F)F)nc1-c1ccc(F)cc1 [Example 33] |  |  | IC50 [1, 7]: < 200 nM; IC50 [2, 8]: 200 to 500 nM
10 | CS(=O)(=O)c1ccc(F)cc1-c1ncoc1C(=O)Nc1nc(-c2ccccn2)cs1 [Example 47] | 200 to 500 nM | 500 to 1000 nM | 
11 | CN(c1nc(-c2ccc(S(C)(=O)=O)cc2)c(C(=O)Nc2nc(-c3ccccn3)cs2)o1)S(=O)(=O)c1ccc(C(F)(F)F)cc1 [Example 75] |  |  | IC50 [1, 7]: 200 to 500 nM; IC50 [2, 8]: < 200 nM
12 | Cc1nnc(-c2ccc(-c3nc(C)oc3C(=O)Nc3nc(-c4ccccn4)cs3)cc2)o1 [Example 65] |  |  | IC50 [1, 7]: < 200 nM; IC50 [2, 8]: < 200 nM
13 | Cc1cc(C(=O)Nc2nc(-c3ncccc3C)co2)n(-c2ccc(S(C)(=O)=O)cc2)n1 [Example 19] |  |  | IC50 [1, 9]: < 200 nM; IC50 [2, 10]: 200 to 500 nM
14 | O=C(Nc1nc(-c2ccccn2)cs1)c1cc(Cl)c(=O)n(Cc2ccc(C(F)(F)F)cc2)c1 [Example 8] |  |  | IC50 [1, 9]: 500 to 1000 nM; IC50 [2, 10]: 200 to 500 nM
15 | COc1cc(F)ccc1-c1ncoc1C(=O)Nc1nc(-c2ccccn2)cs1 [Example 46] |  |  | IC50 [1, 7]: 500 to 1000 nM; IC50 [2, 8]: 500 to 1000 nM
16 | CCc1nc(-c2ccc(F)cc2)c(C(=O)Nc2nc(-c3ccccn3)cs2)o1 [Example 13] | < 200 nM | < 200 nM | 
17 | Cc1ccc(Cn2nc(C)c(C(=O)Nc3nc(-c4ccccn4)cs3)c2C)cc1 [Example 10] |  |  | IC50 [1, 3]: 500 to 1000 nM; IC50 [2, 4]: 1000 to 10000 nM
18 | Cc1onc(-c2ccc(OC(F)(F)F)cc2)c1C(=O)Nc1nc(-c2ccccn2)cs1 [Example 26] | < 200 nM | 200 to 500 nM | 

Second part, led by results:

Row | IC50 [2, 6] | SMILES | IC50 [1, 5] | also measured
19 | < 200 nM | CN(C(=O)c1ccc(F)cc1)c1nc(-c2ccc(F)cc2)c(C(=O)Nc2nc(-c3ccccn3)cs2)o1 [Example 76] | < 200 nM | 
20 | 200 to 500 nM | O=C(Nc1nc(-c2ccccn2)cs1)c1oc(CN2CCOCC2)nc1-c1ccc(F)cc1 [Example 72] | 200 to 500 nM | 
21 | < 200 nM | CC(C)CS(=O)(=O)N(C)c1nc(-c2ccc(F)cc2)c(C(=O)Nc2nc(-c3ccccn3)cs2)o1 [Example 60] | < 200 nM | 
22 | < 200 nM | CC(C)S(=O)(=O)N(C)c1nc(-c2ccc(F)cc2)c(C(=O)Nc2nc(-c3ccccn3)cs2)o1 [Example 58] | < 200 nM | 
23 | 200 to 500 nM | CN1CCN(Cc2nc(-c3ccc(F)cc3)c(C(=O)Nc3nc(-c4ccccn4)cs3)o2)CC1 [Example 71] | 200 to 500 nM | 
24 | 200 to 500 nM | CN(c1nc(C(F)(F)F)c(C(=O)Nc2nc(-c3ccccn3)cs2)o1)S(=O)(=O)c1ccc(C(F)(F)F)cc1 [Example 55] | 200 to 500 nM | 
25 | 500 to 1000 nM | Cc1nc(N(C)S(=O)(=O)c2ccc(Cl)cc2)oc1C(=O)Nc1nc(-c2ccccn2)cs1 [Example 52] | 500 to 1000 nM | 
